Literature values as cited in US20060269582A1, “Arthropod repellent comprising extracts and/or parts of the plant vitex agnus-castus” (Alpha-Biocare GmbH, priority 2002, published 2006).

What was measured:
ticks and mites = conditions: state of the art
ticks = conditions: state of the art

Structure (SMILES): CCN(CC)C(=O)c1cccc(C)c1 [DEET, N,N-diethyl-m-toluamide]
- efficiency / activity against ticks and mites (ticks and mites): low efficiency

Structure (SMILES): CCC(C)OC(=O)N1CCCCC1CCO (stereo not shown) [Bayrepel]
- activity against ticks (ticks): poor
- duration of protection against ticks (ticks): about two

Structure (SMILES): CC1=C(C=O)C(CC=O)CC1 (stereo not shown) [2-(2-formyl-3-methyl-cyclopent-2-enyl)acetaldehyde]
- efficiency / activity against ticks and mites (ticks and mites): low or even not there
